Measured values taken from ChEMBL document CHEMBL5360545, “Multitargeted drug design strategy for discovery of short-peptide-based HIV-1 entry inhibitors with high potency” (Eur J Med Chem, 2023).
Side chains are listed from the residue outwards. Peptide text beside a SMILES is read from it. * marks the point of attachment. X1 = CC(=O)N1CCC(C(=O)N(CCCN2CCC(Cc3ccc(C(=O)*)cc3)CC2)c2ccc(C)c(Cl)c2)CC1; PEG12 = NCCOCCOCCOCCOCCOCCOCCOCCOCCOCCOCCOCCOCCC(=O)O

Tests used:
[1] = test system: Human immunodeficiency virus 1; experiment: Antiviral activity against HIV-1 Bal-R5 infected in human CEMx174 5.25M7 cells assessed as reduction in p24 antigen level measured after 4 days by ELISA; format: functional, organism-based; conditions: Human immunodeficiency virus 1, Bal-R5, CEMx174 5.25M7, 96 h
[2] = test system: Human immunodeficiency virus 1; experiment: Antiviral activity against HIV-1 clinical isolate X4-89BZ167 infected in human CEMx174 5.25M7 cells assessed as reduction in p24 antigen level measured after 4 days by ELISA; format: functional, organism-based; conditions: Human immunodeficiency virus 1, clinical isolate X4-89BZ167, CEMx174 5.25M7, 96 h
[3] = test system: Human immunodeficiency virus 1; experiment: Antiviral activity against HIV-1 clinical isolate 97 TH-NP1525 infected in human CEMx174 5.25M7 cells assessed as reduction in p24 antigen level measured after 4 days by ELISA; format: functional, organism-based; conditions: Human immunodeficiency virus 1, clinical isolate 97 TH-NP1525, CEMx174 5.25M7, 96 h
[4] = Proteolytic stability in rat liver assessed as parent compound remaining incubated for 4 hrs by RP-UHPLC analysis; format: ADME, tissue-based; conditions: read-out: Stability
[5] = test system: Human immunodeficiency virus 1; experiment: Antiviral activity against HIV-1 clinical isolate X4-92UG024 infected in human CEMx174 5.25M7 cells assessed as reduction in p24 antigen level measured after 4 days by ELISA; format: functional, organism-based; conditions: Human immunodeficiency virus 1, clinical isolate X4-92UG024, CEMx174 5.25M7, 96 h
[6] = biological target: C-C chemokine receptor type 5 (Homo sapiens, UniProt P51681); experiment: Antagonist activity at CCR5 (unknown origin) expressed in HEK293 cells co-expressing Galpha16 assessed as intracellular calcium change incubated for 60 mins by Fluo-4 AM calcium flux based FLIPR assay; format: functional, cell-based
C-C chemokine receptor type 5, sequence (P51681 whole entry): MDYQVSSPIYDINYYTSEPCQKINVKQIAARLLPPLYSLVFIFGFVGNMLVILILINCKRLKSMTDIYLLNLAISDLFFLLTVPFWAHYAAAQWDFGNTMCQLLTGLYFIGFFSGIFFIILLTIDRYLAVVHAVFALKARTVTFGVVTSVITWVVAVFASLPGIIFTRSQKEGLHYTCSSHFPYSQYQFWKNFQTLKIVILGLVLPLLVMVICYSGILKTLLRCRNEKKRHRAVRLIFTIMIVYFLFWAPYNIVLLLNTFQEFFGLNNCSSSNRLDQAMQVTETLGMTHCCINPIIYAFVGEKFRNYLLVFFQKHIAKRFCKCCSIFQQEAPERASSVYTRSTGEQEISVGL

[7] = test system: Human immunodeficiency virus 1; experiment: Antiviral activity against HIV-1 clinical isolate R5-91US-4 infected in human CEMx174 5.25M7 cells assessed as reduction in p24 antigen level measured after 4 days by ELISA; format: functional, organism-based; conditions: Human immunodeficiency virus 1, clinical isolate R5-91US-4, CEMx174 5.25M7, 96 h
[8] = test system: Human immunodeficiency virus 1; experiment: Antiviral activity against HIV-1 clinical isolate R5-J32228M4 infected in human CEMx174 5.25M7 cells assessed as reduction in p24 antigen level measured after 4 days by ELISA; format: functional, organism-based; conditions: Human immunodeficiency virus 1, clinical isolate R5-J32228M4, CEMx174 5.25M7, 96 h
[9] = biological target: Envelope glycoprotein gp160 (Human immunodeficiency virus 1) (UniProt Q72502); experiment: Binding affinity to HIV1 GP41 using GP41 NHR derived N39 peptide assessed as binding constant by isothermal titration calorimetry
[10] = biological target: Envelope glycoprotein gp160 (Human immunodeficiency virus 1) (UniProt Q72502); experiment: Binding affinity to HIV1 GP41 using GP41 NHR derived N39 peptide assessed as change in enthalpy by isothermal titration calorimetry
[11] = biological target: Envelope glycoprotein gp160 (Human immunodeficiency virus 1) (UniProt Q72502); experiment: Binding affinity to HIV1 GP41 using GP41 NHR derived N39 peptide assessed as change in entropy by isothermal titration calorimetry

Row | EC50 [1] [nM] | Compound | EC50 [2] [nM] | EC50 [3] [nM] | remaining at 4 h [4] [%] | EC50 [5] [nM] | IC50 [6] [nM] | EC50 [7] [nM] | EC50 [8] [nM] | K [9] | deltaH [10] | deltaS [11] [cal/mol/deg]
1 | 0.35 | CC[C@H](C)[C@H](NC(=O)[C@H](CCCCN)NC(=O)[C@H](CCC(N)=O)NC(=O)[C@H](CCC(=O)O)NC(=O)[C@H](Cc1c[nH]c2ccccc12)NC(C)=O)C(=O)N[C@@H](CCC(=O)O)C(=O)N[C@@H](CCC(=O)O)C(=O)N[C@@H](CC(C)C)C(=O)N[C@@H](CC(C)C)C(=O)N[C@@H](CCCCN)C(=O)N[C@@H](CCCCN)C(=O)N[C@@H](C)C(=O)N[C@@H](CCC(=O)O)C(=O)N[C@@H](CCC(=O)O)C(=O)N[C@@H](CCC(N)=O)C(=O)N[C@@H](CCC(N)=O)C(=O)N[C@@H](CCCCN)C(=O)N[C@@H](CCCCN)C(=O)N[C@@H](CC(N)=O)C(=O)N[C@@H](CCC(=O)O)C(=O)N[C@@H](CCC(=O)O)C(=O)N[C@@H](CCC(=O)O)C(=O)N[C@@H](CC(C)C)C(=O)N[C@@H](CCCCN)C(=O)N[C@@H](CCCCN)C(=O)N[C@@H](CC(C)C)C(=O)N[C@@H](CCC(=O)O)C(=O)N[C@@H](CCCCN)C(=O)N[C@@H](CCCCNC(=O)CCOCCOCCOCCOCCOCCOCCOCCOCCOCCOCCOCCOCCNC(=O)c1ccc(CC2CCN(CCCN(C(=O)C3CCN(C(C)=O)CC3)c3ccc(C)c(Cl)c3)CC2)cc1)C(N)=O (Ac-WEQKIEELLKKAEEQQKKNEEELKKLEKK([PEG12-X1])-NH2) |  |  |  |  |  |  |  |  |  | 
2 | 9.03 | CC(=O)N1CCC(C(=O)N(CCCN2CCC(Cc3ccc(C(N)=O)cc3)CC2)c2ccc(C)c(Cl)c2)CC1 | > 300 | > 300 |  | > 300 | 0.83 | 12.1 | 161 |  |  | 

Second part, the compound before the results:

Row | Compound | EC50 [1] [nM] | EC50 [2] [nM] | EC50 [3] [nM] | remaining at 4 h [4] [%] | EC50 [5] [nM] | IC50 [6] [nM] | EC50 [7] [nM] | EC50 [8] [nM] | K [9] | deltaH [10] | deltaS [11] [cal/mol/deg]
3 | enfuvirtide |  | 48.2 | 2.54 | 45 | 24.6 |  |  |  |  |  | 
4 | CC[C@H](C)[C@H](NC(=O)[C@H](CCCCN)NC(=O)[C@H](CCC(N)=O)NC(=O)[C@H](CCC(=O)O)NC(=O)[C@H](Cc1c[nH]c2ccccc12)NC(C)=O)C(=O)N[C@@H](CCC(=O)O)C(=O)N[C@@H](CCC(=O)O)C(=O)N[C@@H](CC(C)C)C(=O)N[C@@H](CC(C)C)C(=O)N[C@@H](CCCCN)C(=O)N[C@@H](CCCCN)C(=O)N[C@@H](C)C(=O)N[C@@H](CCC(=O)O)C(=O)N[C@@H](CCC(=O)O)C(=O)N[C@@H](CCC(N)=O)C(=O)N[C@@H](CCC(N)=O)C(=O)N[C@@H](CCCCN)C(=O)N[C@@H](CCCCN)C(=O)N[C@@H](CC(N)=O)C(=O)N[C@@H](CCC(=O)O)C(=O)N[C@@H](CCC(=O)O)C(=O)N[C@@H](CCC(=O)O)C(=O)N[C@@H](CC(C)C)C(=O)N[C@@H](CCCCN)C(=O)N[C@@H](CCCCN)C(=O)N[C@@H](CC(C)C)C(=O)N[C@@H](CCC(=O)O)C(=O)N[C@@H](CCCCN)C(=O)N[C@@H](CCCCNC(=O)c1ccc(CC2CCN(CCCN(C(=O)C3CCN(C(C)=O)CC3)c3ccc(C)c(Cl)c3)CC2)cc1)C(N)=O (Ac-WEQKIEELLKKAEEQQKKNEEELKKLEKK(X1)-NH2) | 1.75 |  |  |  |  |  |  |  |  |  | 
5 | Ac-WEQKIEELLKKAEEQQKKNEEELKKLEK-NH2 | 2.45 |  |  |  |  |  |  |  |  |  | 
6 | Ac-IEELIRAAQEQQRKNEEALREL-NH2 | 4.47 | 63.1 | 3.7 |  | 76.5 | > 10000 | 275 | > 250 | 8.29 10^5/M | -1 10^4cal/mol | -6.92
